# Measured values published in patent publication US8987212B2, “Oleanoyl peptide composition and method of treating skin aging” (priority 2007, dated 2015).
# Where a SMILES comes first, the peptide text is derived from it. The star is where a group is joined. X1 = CC1(C)CC[C@]2(C(=O)*)CC[C@]3(C)C(=CCC4[C@@]5(C)CC[C@H](O)C(C)(C)C5CC[C@]43C)C2C1
# Tests used:
# LTB4 = LTB4 inhibition (same procedure as TNF α); format: cell-based, human; conditions: at 0.625 μg/ml
# Excerpt: The above procedure is also followed for determining LTB4 inhibition by Oleanoyl peptide. From the results tabulated in table 1, it is clear that Oleanoyl peptide is a better TNF α and LTB4 inhibitor.
# TNF α = TNF α inhibition in LPS-stimulated human whole blood (ELISA); format: cell-based; conditions: human whole blood, LPS 1 ng/mL
# Excerpt: For TNF α inhibitory study, human whole blood is used. In whole blood assay, monocytes appear to be the main source of TNF-α on lipopolysaccharide (LPS) stimulation. Monocyte and macrophages are a major source of TNF-α in addition to other cell types like eosinophils, mast cells, peripheral lymphocytes and granulocytes. The activation of inflammatory cells is influenced by the intracellular levels of c-AMP which are regulated by the phosphodiesterase isoenzyme. […] After stimulation, the assay employs the quantitative sandwich enzyme immunoassay technique. A monoclonal antibody specific for TNF-α has been pre-coated onto a microplate. TNF-α present in the sample is bound by the immobilized antibody. After washing away any unbound substances, an enzyme-linked polyclonal antibody specific for TNF-α is added. Following a wash to remove any unbound antibody-enzyme reagent, a substrate solution is added to the wells and colour develops in proportion to the amount of TNF-α bound in the initial step. The colour development is stopped and the intensity of the colour is directly proportional to the TNF-α content.
# Heparinized blood from healthy donors was diluted 1:3 in RPMI 1640 culture medium containing 10% FBS. […] 0.1% DMSO was used as vehicle for water insoluble samples. After pre-incubation, the whole blood cells were stimulated by 1 ng/mL LPS for the release of TNF α from the macrophages by incubating for 5 hr at 37° C. in an incubator with 5% COP. The samples were then centrifuged at 3000 g for 3 minutes at 4° C. and the supernatant was assayed for TNF α content by using the TNF α Elisa kit. 200 μL of supernatant from all the tubes was transferred into microtiter plate in respective wells (Pre-coated mouse monoclonal antibody microplate) followed by the addition of 50 μL of assay diluents in all the wells. After incubation for 2 hr at room temperature, the wells were washed thoroughly with wash buffer provided and then 200 μL of conjugate was added to each well. The plate was incubated for 2 hr at room temperature. After washing again, 200 μL of substrate solution was added to each well and incubated for 20 minutes at room temperature. 50 μL of Stop Solution to each well which will cause the colour change in the wells from blue to yellow was added. The optical density was read at 450 nm which is directly proportional to TNF α content and the percentage of inhibition of TNF α content on treatment with sample was calculated with respect to that of the untreated cells.
# T=absorbance due to TNF α in the presence of inhibitor
# human skin = assay: Effect of Oleanoyl peptide cream on human facial skin; format: in vivo; conditions: cream with Oleanoyl peptide (0.01%), twice daily, three weeks, photographs
# Protocol: To study the potential effect of Oleanoyl peptide on human skin, candidates were selected in-house whose age ranging from about 30 to 60 with moderate to severe signs of aging. A topical composition comprising Oleanoyl peptide (0.01%) was prepared as a cream for application on the skin.
# The cream containing Oleanoyl peptide was applied on the affected areas of facial skin of the candidates twice daily for a continuous period of three weeks. Photographs of the candidates were taken before and after three weeks of application of the cream.
# Nitric Oxide (NO) = assay: Extracellular nitric oxide from LPS-challenged human neutrophils; format: cell-based; conditions: for % activity NO expression against LPS control: ↓ = inhibition
# Protocol: Experimental observations were made in human neutrophil that were challenged with LPS. […] Rolipram at 100 μg/ml dose level was used as a standard drug to observe the authenticity and reproducibility of the experimental design.
# The Oleanoyl peptide was also screened for NO and PGE2 expression.
smiles,measurement,setting,value
"C[C@@H](O)[C@H](NC(=O)[C@H](CCCCN)NC(=O)[C@]12CCC(C)(C)CC1C1=CCC3[C@@]4(C)CC[C@H](O)C(C)(C)C4CC[C@@]3(C)[C@]1(C)CC2)C(=O)N[C@H](C(=O)N[C@@H](CCCCN)C(=O)N[C@@H](CO)C(=O)O)[C@@H](C)O (stereo partly drawn) [Oleanoyl peptide, Oleanoyl-Lys-Thr-Thr-Lys-Ser-OH] (X1-KTTKS-OH)","LTB4 inhibition, % inhibition",LTB4,26%
same,TNF α inhibition (IC50 μg/ml),TNF α,21 µg/mL
same,effect on dark circles under the eye,human skin,reduction of dark circles under the eye
same,effect on hyperpigmentation,human skin,reduction in hyperpigmentation
same,effect on skin thickness,human skin,improvement in skin thickness
same,effect on wrinkles,human skin,wrinkles are softened
same,Concentration of NO produced (μmol/ml) Mean ± S.E.,Nitric Oxide (NO); test sample 0.125 μg/ml,42.77 ± 1.42 µmol/mL
same,Concentration of NO produced (μmol/ml) Mean ± S.E.,Nitric Oxide (NO); test sample 0.25 μg/ml,41.21 ± 1.05 µmol/mL
same,Concentration of NO produced (μmol/ml) Mean ± S.E.,Nitric Oxide (NO); test sample 0.5 μg/ml,39.25 ± 1.08 µmol/mL
same,Concentration of NO produced (μmol/ml) Mean ± S.E.,Nitric Oxide (NO); test sample 1 μg/ml,34.12 ± 2.00 µmol/mL
same,Concentration of NO produced (μmol/ml) Mean ± S.E.,Nitric Oxide (NO); test sample 2 μg/ml,30.21 ± 1.18 µmol/mL
same,% activity NO expression against LPS control,Nitric Oxide (NO); test sample 0.125 μg/ml,3.51↓ %
same,% activity NO expression against LPS control,Nitric Oxide (NO); test sample 0.25 μg/ml,7.03↓ %
same,% activity NO expression against LPS control,Nitric Oxide (NO); test sample 0.5 μg/ml,11.45↓ %
same,% activity NO expression against LPS control,Nitric Oxide (NO); test sample 1 μg/ml,23.03↓ %
same,% activity NO expression against LPS control,Nitric Oxide (NO); test sample 2 μg/ml,31.85%
same,% activity NO expression against LPS control,"Nitric Oxide (NO); test sample 2 μg/ml, listed as OP",31.85↓ %
same,% activity NO expression against LPS control,Nitric Oxide (NO); test sample 4 μg/ml,29.66↓ %
